EC50 data for 36 molecules are collected here from patent US10059713B2 (Takeda Pharmaceutical Company Limited, priority 2014, dated 2018).

This experiment concerns the target human GPR43 (Homo sapiens (Human), UniProt O15552). In words: Ca-Flux functional assay: determination of agonist/positive allosteric modulator (PAM) activity. Format: cell-based. The following applies: CHO-K1 Gα16 cells stably expressing human GPR43; compound added with EC20 sodium acetate; intracellular Ca2+ by FLIPR; does not distinguish agonist from PAM. The procedure, abridged: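 CHO-K1 Gα16 cells stably expressing human GPR43, loaded with Calcium 5 dye 1 h; compounds (10-point half-log from 10 μM) added with sodium acetate at EC20. FLIPR calcium signal gave EC50, two wells per point; agonists and PAMs not distinguished.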

Sequence of human GPR43 (O15552 whole entry): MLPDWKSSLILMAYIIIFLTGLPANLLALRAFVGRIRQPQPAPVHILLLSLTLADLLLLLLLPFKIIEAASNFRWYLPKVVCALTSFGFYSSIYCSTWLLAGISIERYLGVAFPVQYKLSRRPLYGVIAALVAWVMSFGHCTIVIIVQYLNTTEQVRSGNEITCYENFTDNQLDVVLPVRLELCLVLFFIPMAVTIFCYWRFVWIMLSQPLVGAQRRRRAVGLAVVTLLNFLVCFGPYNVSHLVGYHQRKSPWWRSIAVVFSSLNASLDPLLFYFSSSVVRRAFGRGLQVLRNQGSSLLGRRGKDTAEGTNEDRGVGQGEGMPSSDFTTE

In turn, `CC[C@H](C)Oc1nc(C)nc2c(S(=O)(=O)c3ccccc3)c(N)[nH]c12` [Example 246, 7-(benzenesulfonyl)-4-[(2S)-butan-2-yloxy]-2-methyl-5H-pyrrolo[3,2-d]pyrimidin-6-amine] had an EC50 of 64 nM.

`Nc1[nH]c2c(OCC3CC(F)(F)C3)ncnc2c1S(=O)(=O)c1ccccc1` [Example 171, 7-(benzenesulfonyl)-4-[(3,3-difluorocyclobutyl)methoxy]-5H-pyrrolo[3,2-d]pyrimidin-6-amine] gave an EC50 of 134 nM.

With `COc1ccc(S(=O)(=O)c2c(N)[nH]c3c(N4CCO[C@@H](C)C4)nc(C)nc23)c(F)c1` [Example 233, 7-(2-fluoro-4-methoxybenzenesulfonyl)-2-methyl-4-[(2S)-2-methylmorpholin-4-yl]-5H-pyrrolo[3,2-d]pyrimidin-6-amine], the midpoint of the response, the EC50, lay at 3 nM.

Consider `CC1(C)CN(c2nncc3c(S(=O)(=O)c4ccccc4F)c(N)[nH]c23)CCO1` [Example 234, 7-(2,2-dimethylmorpholin-4-yl)-3-(2-fluorobenzenesulfonyl)-1H-pyrrolo[2,3-d]pyridazin-2-amine], for which the response was half-maximal at 69 nM (EC50).

Consider `Cc1cccc(-c2nc(C)nc3c(S(=O)(=O)c4ccccc4)c(N)[nH]c23)c1` [Example 148, 7-(benzenesulfonyl)-2-methyl-4-(3-methylphenyl)-5H-pyrrolo[3,2-d]pyrimidin-6-amine], for which the EC50 was 14 nM.

In turn, `Cc1nc(N2CCC3(CC2)CC3)c2[nH]c(N)c(S(=O)(=O)c3ccccc3F)c2n1` [Example 214, 4-{6-azaspiro[2.5]octan-6-yl}-7-(2-fluorobenzenesulfonyl)-2-methyl-5H-pyrrolo[3,2-d]pyrimidin-6-amine] came in with an EC50 of 9 nM.

Turning to `COc1ccc(S(=O)(=O)c2c(N)[nH]c3c(N4CCC5(CC4)CC5)ncnc23)cc1` [Example 72, 4-{6-azaspiro[2.5]octan-6-yl}-7-(4-methoxybenzenesulfonyl)-5H-pyrrolo[3,2-d]pyrimidin-6-amine], a half-maximal effect (EC50) was put at 26 nM.

In turn, `Nc1[nH]c2c(N3CCCOCC3)ncnc2c1S(=O)(=O)c1ccccc1` [Example 82, 7-(benzenesulfonyl)-4-(1,4-oxazepan-4-yl)-5H-pyrrolo[3,2-d]pyrimidin-6-amine] had an EC50 of 1150 nM.

Regarding `CN(c1ncnc2c(S(=O)(=O)c3ccccc3)c(N)[nH]c12)C1CC1` [Example 98, 7-(benzenesulfonyl)-4-N-cyclopropyl-4-N-methyl-5H-pyrrolo[3,2-d]pyrimidine-4,6-diamine], the midpoint of the response, the EC50, lay at 648 nM.

`Nc1[nH]c2c(N3CCO[C@H](c4ccccc4)C3)ncnc2c1S(=O)(=O)c1ccccc1` [Example 133, 7-(benzenesulfonyl)-4-[(2R)-2-phenylmorpholin-4-yl]-5H-pyrrolo[3,2-d]pyrimidin-6-amine] displayed an EC50 of 24 nM.

`CCN(Cc1cnn(C)c1)c1ncnc2c(S(=O)(=O)c3ccccc3)c(N)[nH]c12` [Example 64, 7-(benzenesulfonyl)-4-N-ethyl-4-N-[(1-methyl-1H-pyrazol-4-yl)methyl]-5H-pyrrolo[3,2-d]pyrimidine-4,6-diamine] yielded an EC50 of 2350 nM.

`Cc1nc(COc2ncnc3c(S(=O)(=O)c4ccccc4)c(N)[nH]c23)c(C)o1` [Example 163, 7-(benzenesulfonyl)-4-[(dimethyl-1,3-oxazol-4-yl)methoxy]-5H-pyrrolo[3,2-d]pyrimidin-6-amine] registered a concentration giving a half-maximal response (EC50) of 6260 nM.

In turn, `Cc1cc(C)n(-c2ncnc3c(S(=O)(=O)c4ccccc4)c(N)[nH]c23)n1` [Example 140, 7-(benzenesulfonyl)-4-(3,5-dimethyl-1H-pyrazol-1-yl)-5H-pyrrolo[3,2-d]pyrimidin-6-amine] came in with an EC50 of 72 nM.

On to `Nc1[nH]c2c(CCC3CC3)ncnc2c1S(=O)(=O)c1ccccc1` [Example 13, 7-(benzenesulfonyl)-4-(2-cyclopropylethyl)-5H-pyrrolo[3,2-d]pyrimidin-6-amine], for which the EC50 is 267 nM.

For `CCC(Oc1nc(C)nc2c(S(=O)(=O)c3ccccc3)c(N)[nH]c12)C1CC1` (stereo not drawn) [Example 243, 7-(benzenesulfonyl)-4-(1-cyclopropylpropoxy)-2-methyl-5H-pyrrolo[3,2-d]pyrimidin-6-amine], the response was half-maximal at 11 nM (EC50).

As to `COc1ccc(N(C)S(=O)(=O)c2c(N)[nH]c3c(C4=CCCCC4)ncnc23)cc1` [Example 14, 6-amino-4-(cyclohex-1-en-1-yl)-N-(4-methoxyphenyl)-N-methyl-5H-pyrrolo[3,2-d]pyrimidine-7-sulfonamide], the EC50 came out at 2580 nM.

Molecule `Nc1[nH]c2c(N3CCCC4(COC4)C3)ncnc2c1S(=O)(=O)c1ccccc1` [Example 150, 7-(benzenesulfonyl)-4-{2-oxa-6-azaspiro[3.5]nonan-6-yl}-5H-pyrrolo[3,2-d]pyrimidin-6-amine] had an EC50 of 933 nM.

Take `COc1cc(F)ccc1S(=O)(=O)c1c(N)[nH]c2c(N3CCOC(C)C3)ncnc12` (stereo not drawn) [Example 222, 7-(4-fluoro-2-methoxybenzenesulfonyl)-4-(2-methylmorpholin-4-yl)-5H-pyrrolo[3,2-d]pyrimidin-6-amine]: the EC50 turned out to be 4040 nM.

Turning to `CC1(C)CN(c2ccnc3c(S(=O)(=O)c4ccccc4)c(N)[nH]c23)CCO1` [Example 277, 3-(benzenesulfonyl)-7-(2,2-dimethylmorpholin-4-yl)-H-pyrrolo[3,2-b]pyridin-2-amine], the EC50 turned out to be 40 nM.

Turning to `CC1(C)CN(c2ncnc3c(S(=O)(=O)c4ccccc4)c(N)[nH]c23)CCO1` [Example 84, 7-(benzenesulfonyl)-4-(2,2-dimethylmorpholin-4-yl)-5H-pyrrolo[3,2-d]pyrimidin-6-amine], the EC50 came to 29 nM.

`CCC1CN(c2ncnc3c(S(=O)(=O)c4ccc(OC)cc4)c(N)[nH]c23)CCO1` (stereo not drawn) [Example 190, 4-(2-ethylmorpholin-4-yl)-7-(4-methoxybenzenesulfonyl)-5H-pyrrolo[3,2-d]pyrimidin-6-amine] registered an EC50 of 125 nM.

Turning to `CC1CN(c2ncnc3c(S(=O)(=O)c4ccccc4)c(N)[nH]c23)CC(C)S1` (stereo not drawn) [Example 197, 7-(benzenesulfonyl)-4-(2,6-dimethylthiomorpholin-4-yl)-5H-pyrrolo[3,2-d]pyrimidin-6-amine], the response was half-maximal at 4 nM (EC50).

`CC1CC(Oc2ncnc3c(S(=O)(=O)c4ccccc4)c(N)[nH]c23)CC(C)O1` (stereo not drawn) [Example 210, 7-(benzenesulfonyl)-4-[(2,6-dimethyloxan-4-yl)oxy]-5H-pyrrolo[3,2-d]pyrimidin-6-amine] yielded an EC50 of 156 nM.

Take `Cc1nc(N(C)C(C)C)c2[nH]c(N)c(S(=O)(=O)c3cccc(F)c3)c2n1` [Example 193, 7-(3-fluorobenzenesulfonyl)-2,4-N-dimethyl-4-N-(propan-2-yl)-5H-pyrrolo[3,2-d]pyrimidine-4,6-diamine]: the EC50 was found to be 270 nM.

For `Cc1nc(C2CCCCC2)c2[nH]c(N)c(S(=O)(=O)c3ccccc3)c2n1` [Example 40, 7-(benzenesulfonyl)-4-cyclohexyl-2-methyl-5H-pyrrolo[3,2-d]pyrimidin-6-amine], a half-maximal response (EC50) required 55 nM.

Molecule `Cc1nc(N2CCOC(C)(C)C2)c2[nH]c(N)c(S(=O)(=O)c3cccc(F)c3F)c2n1` [Example 280, 7-(2,3-difluorobenzenesulfonyl)-4-(2,2-dimethylmorpholin-4-yl)-2-methyl-5H-pyrrolo[3,2-d]pyrimidin-6-amine] registered an EC50 of 3 nM.

`Nc1[nH]c2c(OCC3CC3)ncnc2c1S(=O)(=O)c1ccccc1` [Example 55, 7-(benzenesulfonyl)-4-(cyclopropylmethoxy)-5H-pyrrolo[3,2-d]pyrimidin-6-amine] yielded an EC50 of 131 nM.

`Nc1[nH]c2c(N(CC3CC3)CC3CCCO3)ncnc2c1S(=O)(=O)c1ccccc1` (stereo not drawn) [Example 63, 7-(benzenesulfonyl)-4-N-(cyclopropylmethyl)-4-N-(oxolan-2-ylmethyl)-5H-pyrrolo[3,2-d]pyrimidine-4,6-diamine]: the midpoint of the response, the EC50, lay at 125 nM.

Regarding `Nc1[nH]c2c(N3CCC(OCC4CC4)CC3)ncnc2c1S(=O)(=O)c1ccccc1` [Example 116, 7-(benzenesulfonyl)-4-[4-(cyclopropylmethoxy)piperidin-1-yl]-5H-pyrrolo[3,2-d]pyrimidin-6-amine], the EC50 was found to be 80 nM.

Regarding `Nc1[nH]c2c(N3CCC(F)(F)CC3)ncnc2c1S(=O)(=O)c1ccccc1` [Example 24, 7-(benzenesulfonyl)-4-(4,4-difluoropiperidin-1-yl)-5H-pyrrolo[3,2-d]pyrimidin-6-amine], the EC50 was 19 nM.

As to `Cc1nc(N2CCOC(C)(C)C2C)c2[nH]c(N)c(S(=O)(=O)c3ccccc3F)c2n1` (stereo not drawn) [Example 8, 7-(2-fluorobenzenesulfonyl)-2-methyl-4-(2,2,3-trimethylmorpholin-4-yl)-5H-pyrrolo[3,2-d]pyrimidin-6-amine], it took 3 nM to reach a half-maximal effect (EC50).

`C=C(C)c1cncc2c(S(=O)(=O)c3ccccc3)c(N)[nH]c12` [Example 100, 3-(benzenesulfonyl)-7-(prop-1-en-2-yl)-1H-pyrrolo[3,2-c]pyridin-2-amine] displayed an EC50 of 145 nM.

Take `CCN(CC1CCCCC1)c1ncnc2c(S(=O)(=O)c3ccccc3)c(N)[nH]c12` [Example 83, 7-(benzenesulfonyl)-4-N-(cyclohexylmethyl)-4-N-ethyl-5H-pyrrolo[3,2-d]pyrimidine-4,6-diamine]: the EC50 turned out to be 100 nM.

Turning to `Cc1nc(N2CCO[C@@H](C)C2)c2[nH]c(N)c(S(=O)(=O)c3ccc(Br)cc3F)c2n1` [Example 239, 7-(4-bromo-2-fluorobenzenesulfonyl)-2-methyl-4-[(2S)-2-methylmorpholin-4-yl]-5H-pyrrolo[3,2-d]pyrimidin-6-amine], the EC50 was 2 nM.

Take `CC1(C)CCCN1c1ncnc2c(S(=O)(=O)c3ccccc3)c(N)[nH]c12` [Example 56, 7-(benzenesulfonyl)-4-(2,2-dimethylpyrrolidin-1-yl)-5H-pyrrolo[3,2-d]pyrimidin-6-amine]: the EC50 worked out at 18 nM.

For `COc1ccc(S(=O)(=O)c2c(N)[nH]c3c(N4C[C@@H](C)O[C@@H](C)C4)ncnc23)cc1` [Example 130, 4-[(2R,6S)-2,6-dimethylmorpholin-4-yl]-7-(4-methoxybenzenesulfonyl)-5H-pyrrolo[3,2-d]pyrimidin-6-amine], a half-maximal response (EC50) required 20 nM.
